Assay [1] addresses T1, Progesterone receptor (Ovis aries) (UniProt Q28590).
T1 sequence (whole entry): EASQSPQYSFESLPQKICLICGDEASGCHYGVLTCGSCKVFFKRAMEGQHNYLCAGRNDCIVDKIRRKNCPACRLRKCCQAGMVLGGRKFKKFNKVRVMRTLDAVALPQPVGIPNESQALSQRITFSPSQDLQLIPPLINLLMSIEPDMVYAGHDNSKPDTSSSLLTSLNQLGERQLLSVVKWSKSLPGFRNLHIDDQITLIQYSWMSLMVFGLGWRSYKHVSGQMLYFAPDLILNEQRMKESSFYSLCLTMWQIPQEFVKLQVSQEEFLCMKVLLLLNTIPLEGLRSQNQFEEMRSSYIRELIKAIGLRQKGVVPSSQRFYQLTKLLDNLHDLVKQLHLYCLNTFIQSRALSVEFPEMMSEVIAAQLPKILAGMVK
Nature of the assay: Relative binding affinity to sheep progesterone receptor.

The target of assay [2] is T2, Progesterone receptor (Oryctolagus cuniculus) (UniProt P06186).
T2 sequence (whole entry): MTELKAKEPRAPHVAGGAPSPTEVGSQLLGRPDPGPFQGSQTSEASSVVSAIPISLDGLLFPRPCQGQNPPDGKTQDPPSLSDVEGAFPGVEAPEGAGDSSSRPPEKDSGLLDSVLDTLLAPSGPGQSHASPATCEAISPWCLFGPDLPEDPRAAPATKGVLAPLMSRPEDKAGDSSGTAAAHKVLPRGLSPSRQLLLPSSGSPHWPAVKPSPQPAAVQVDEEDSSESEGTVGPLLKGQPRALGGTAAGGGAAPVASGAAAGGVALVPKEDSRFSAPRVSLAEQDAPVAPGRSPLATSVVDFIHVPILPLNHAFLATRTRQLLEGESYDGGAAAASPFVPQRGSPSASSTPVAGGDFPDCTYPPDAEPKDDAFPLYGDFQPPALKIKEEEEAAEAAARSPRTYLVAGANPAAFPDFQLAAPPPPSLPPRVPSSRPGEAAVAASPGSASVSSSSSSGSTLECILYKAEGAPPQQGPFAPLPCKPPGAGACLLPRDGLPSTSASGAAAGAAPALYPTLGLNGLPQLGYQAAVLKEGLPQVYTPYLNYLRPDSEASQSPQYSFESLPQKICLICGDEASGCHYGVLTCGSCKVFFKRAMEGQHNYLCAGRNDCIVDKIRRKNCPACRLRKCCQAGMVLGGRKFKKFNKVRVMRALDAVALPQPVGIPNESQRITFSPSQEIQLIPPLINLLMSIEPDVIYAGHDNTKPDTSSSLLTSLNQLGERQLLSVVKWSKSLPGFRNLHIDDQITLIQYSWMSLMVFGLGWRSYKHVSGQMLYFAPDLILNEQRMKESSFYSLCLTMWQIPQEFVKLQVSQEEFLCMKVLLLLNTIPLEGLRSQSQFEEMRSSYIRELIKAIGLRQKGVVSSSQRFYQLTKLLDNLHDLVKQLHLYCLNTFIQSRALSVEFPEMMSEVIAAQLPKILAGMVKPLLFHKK
Nature of the assay: Relative binding affinity to rabbit progesterone receptor.

The species entered for a further assay is Cavia porcellus. Nature of the assay: Relative binding affinity to guinea pig progesterone receptor.
For assay [3], the target named is T3, Progesterone receptor (Homo sapiens) (UniProt P06401).
T3 sequence (whole entry): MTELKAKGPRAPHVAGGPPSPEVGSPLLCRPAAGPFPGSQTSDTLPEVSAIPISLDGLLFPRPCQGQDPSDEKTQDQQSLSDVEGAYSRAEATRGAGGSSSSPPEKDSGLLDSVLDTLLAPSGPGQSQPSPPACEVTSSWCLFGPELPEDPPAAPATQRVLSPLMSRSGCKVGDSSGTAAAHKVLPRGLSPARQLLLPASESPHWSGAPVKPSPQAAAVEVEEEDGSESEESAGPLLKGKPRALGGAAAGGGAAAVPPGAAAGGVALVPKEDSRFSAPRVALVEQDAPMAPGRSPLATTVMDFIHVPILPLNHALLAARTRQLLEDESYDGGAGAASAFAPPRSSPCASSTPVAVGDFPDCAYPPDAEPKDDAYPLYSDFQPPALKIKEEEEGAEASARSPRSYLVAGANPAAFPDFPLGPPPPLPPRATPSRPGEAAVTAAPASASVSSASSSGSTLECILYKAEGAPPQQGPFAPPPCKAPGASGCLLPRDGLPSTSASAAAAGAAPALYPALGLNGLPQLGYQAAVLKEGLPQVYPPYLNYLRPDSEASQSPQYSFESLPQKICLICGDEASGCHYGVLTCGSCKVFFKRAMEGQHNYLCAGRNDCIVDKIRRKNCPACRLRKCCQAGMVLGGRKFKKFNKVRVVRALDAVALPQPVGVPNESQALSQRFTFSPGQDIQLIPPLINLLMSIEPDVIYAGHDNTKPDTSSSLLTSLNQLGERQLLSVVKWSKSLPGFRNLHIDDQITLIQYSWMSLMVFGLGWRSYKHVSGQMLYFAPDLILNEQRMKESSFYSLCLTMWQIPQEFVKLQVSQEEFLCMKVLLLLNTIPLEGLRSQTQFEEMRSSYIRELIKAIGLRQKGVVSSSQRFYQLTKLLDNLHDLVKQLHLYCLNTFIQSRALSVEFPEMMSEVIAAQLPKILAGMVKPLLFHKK

On to `CC(=O)O[C@]1(C(C)=O)CC[C@H]2[C@@H]3C=C(Cl)C4=CC(=O)CC[C@]4(C)[C@H]3CC[C@@]21C`, for which the log(RBA) in assay [1] was 1.78; in assay [2], 2.16; in the assay filed under Cavia porcellus it was -0.097; in assay [3], 2.08.
The like results for `CC[C@@H]1C[C@H]2[C@@H]3CCC4=CC(=O)CC[C@@H]4[C@H]3CC[C@]2(C)[C@H]1C(=O)CO` were, in that order, 1.98, 2.44, 1.4 and 2.16.
For the molecule `CC(=O)O[C@]1(C(C)=O)CC[C@H]2[C@@H]3CCC4=C(O)C(=O)CC[C@]4(C)[C@H]3CC[C@@]21C`, the log(RBA) in assay [1] was 1.2; in assay [2] it was 1.77; in the assay listed under Cavia porcellus, -0.4; in assay [3], 1.62.
Turning to `C#C[C@]1(O)CC[C@H]2[C@@H]3CC[C@@H]4C[C@@H](O)CC[C@@H]4[C@H]3CC[C@@]21C`, the log(RBA) in assay [1] was -0.7; in assay [2], -1; in the assay listed under Cavia porcellus, -1.09; in assay [3] it was -0.52.
